# Data taken from patent US20250263416A1, “SPPL2a INHIBITORS” (Incyte Corporation, priority 2024, published 2025).
# Entries after “also recorded” stand apart in the source; their conditions may differ.
# Assays:
# [1] = system: Imiquimod (IMQ)-induced psoriasis mouse model; assay: Imiquimod (IMQ)-induced psoriasis mouse model; format: in vivo, BALB/c female mice; conditions: 15 mg/kg PO BID
# Protocol: A comparative study was performed to evaluate the efficacy of the deuterated-inhibitor Example 1 to Example A in the mouse model of psoriasis. Briefly, BALB/c female mice (7-8 week age) were shaved on the dorsal skin and 62.5 mg of IMQ cream was applied daily until day 9. Simultaneously, 15 mg of IMQ cream was applied on one ear daily until day 9. Example 1 and Example A were given orally (PO) at 15 mg/kg, BID. Mice were monitored and clinical signs of psoriasis were recorded (PSI score), both on the dorsal skin (erythema, scaling & thickness) and on the IMQ-applied ear (thickness). All data is presented as mean+SEM. For comparison of more than two groups, ANOVA was used. Pearson product moment correlation was used to test for correlations. All statistical analysis was performed using GraphPad Prism™ 10.
# MoDCs = assay: DC-maturation assay (monocyte-derived dendritic cells from human PBMCs); format: cell-based; conditions: 24 h
# Protocol: Dendritic cells are crucial players in the antigen presentation process and inflammation. […] To validate the functional relevance of SPPL2a inhibitor, a DC-maturation assay was utilized. Human PBMCs were isolated from fresh blood using Histoplaque gradients and plated overnight at 37° C. to allow monocytes to adhere. Non-adherent cells were washed off the following day and DC-differentiation media containing GM-CSF and IL-4 was added and incubated for 5 d. Immature MoDCs were separated and washed. A cocktail of maturation media with SPPL2a inhibitor (at indicated concentrations) was added to the wells and cells were incubated for 24 h. Supernatants were collected and processed to measure TNFα and IL-12 by ELISA. All data is presented as mean+SEM. For comparison of more than two groups, ANOVA was used. All statistical analysis was performed using GraphPad Prism™ 10.
# human SPPL2a = molecular target: T1, human SPPL2a (Homo sapiens, UniProt Q8TCT8); assay: Nuclear translocation imaging assay for human SPPL2a (SPPL2a reporter U2OS cell line); format: cell-based; conditions: U2OS reporter cells, 24 h incubation
# T1 construct: expressed in transfected cells; host or cells: U2OS (SPPL2a reporter cell line)
# T1 sequence (Q8TCT8 26-520): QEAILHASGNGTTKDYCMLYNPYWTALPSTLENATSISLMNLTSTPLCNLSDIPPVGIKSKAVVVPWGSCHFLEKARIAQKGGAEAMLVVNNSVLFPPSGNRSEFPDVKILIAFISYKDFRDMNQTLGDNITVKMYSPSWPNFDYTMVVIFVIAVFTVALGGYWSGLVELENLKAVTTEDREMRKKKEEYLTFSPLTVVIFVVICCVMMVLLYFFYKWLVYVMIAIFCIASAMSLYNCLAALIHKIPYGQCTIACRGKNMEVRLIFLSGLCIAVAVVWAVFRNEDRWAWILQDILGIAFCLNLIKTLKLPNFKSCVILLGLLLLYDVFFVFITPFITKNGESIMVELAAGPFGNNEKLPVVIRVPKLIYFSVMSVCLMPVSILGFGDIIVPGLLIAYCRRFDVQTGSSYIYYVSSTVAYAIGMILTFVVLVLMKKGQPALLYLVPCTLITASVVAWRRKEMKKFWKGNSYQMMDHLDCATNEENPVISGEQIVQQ
# Protocol: The nuclear translocation imaging assays for human SPPL2a were performed using an SPPL2a reporter U2OS cell line as previously described (Velcicky et al 2018, Zhang et al 2017). These cells stably express human SPPL2a and a doxycycline inducible eGFP TNFα (aa 1-76) NTF fusion protein (SPPL2a substrate). Both Example 1 and Example A were added at indicated concentrations and cells were incubated for 24 h, washed, and fixed. Nuclei were stained with DAPI. Images were acquired on a confocal fluorescence microscope system LSM-800 (Carl Zeiss). Image data was analyzed by using mid-section from Z-stack images of at least 10 individual cells per sample. All data is presented as mean+SEM. Statistical significance was calculated with the ANOVA test using GraphPad Prism™ 10.
# [2] = system: MRL/MpJ-Faslpr/J mice, lupus-like disease; assay: Mouse model of systemic lupus (SLE); format: in vivo
# Protocol: A mouse model of SLE was used to evaluate the treatment potential of SPPL2a inhibition by Example A in vivo in female mice aged 8 weeks. The MRL/MpJ-Faslpr/J (JAX stock #000485) mice used in this study develop a spontaneously accelerated and aggressive lupus-like disease characterized by immune-mediated damage to the organs, and by the presence of circulating auto-Abs against dsDNA, which are serological hallmarks of SLE. Mice were prophylactically treated orally with Example A at 15 mg/kg and 30 mg/kg dose, twice daily after allotment into different groups starting at week 10. As a control, cyclophosphamide at 25 mg/kg dose was given intraperitoneally, twice weekly. Mice were monitored weekly for the clinical sign development, proteinuria, skin lesions and lymphadenopathy. The study was terminated by euthanizing mice at 20 weeks of age following 10 weeks of dosing. All data is presented as mean+SEM. For comparison of more than two groups, ANOVA was used. All statistical analysis was performed using GraphPad Prism™10.
# Inflammatory cytokine levels (TNFα and IFNγ) and murine immunoglobulin levels (Ig) were measured using MSD® multi-spot assay kits.
# [3] = both doses tested (15 and 30 mg/kg orally twice daily)
# [4] = both treated groups (15 and 30 mg/kg BID)
compound,measurement,setting,value
"CNC(=O)c1nc(C)c(C(=O)NC[C@@H](C)C(=O)N[C@@H]2C(=O)N3CCCN3Cc3ccccc32)s1 [Example A, N^2,4-dimethyl-N^5—((R)-2-methyl-3-oxo-3-(((S)-11-oxo-2,3,10,11-tetrahydro-1H,5H-benzo[d]pyrazolo[1,2-a][1,2]diazepin-10-yl)amino)propyl)thiazole-2,5-dicarboxamide]",dorsal PSI scores,[1],alleviate
same,ear thickness measurements,[1],alleviate
same,clinical signs of psoriasis disease,[1]; compared to vehicle group,significantly reduced
same,Mouse IL-12 level in plasma,[1]; terminal day,significant reduction
same,Mouse TNFα level in plasma,[1]; terminal day,significant reduction
same,IL-12 secretion,"MoDCs; MoDC supernatants, ELISA",significantly decreased
same,TNFα secretion,"MoDCs; MoDC supernatants, ELISA",significantly decreased
same,MoDC maturation,MoDCs; compared to the stimulation only condition,significantly decreased
same,inhibition of nuclear translocation of TNFα-GFP,human SPPL2a,inhibited; also recorded: comparable and significant TNFα-GFP inhibition of nuclear translocation
same,TNFα levels in mouse serum,[2]; 15 mg/kg BID,No significant changes
same,Levels of IgA,[2]; 15 mg/kg dose,significantly down regulated
same,kidney pathology,"[2]; 15 mg/kg, compared to vehicle control",did not exhibit a test article-related change compared to the vehicle control except in the blood vessels
same,TNFα levels in mouse serum,[2]; 30 mg/kg BID,significantly inhibits
same,antibody production in mouse serum,[2]; 30 mg/kg BID,significantly inhibits
same,Levels of IgA,[2]; 30 mg/kg dose,trended lower
same,"kidney pathology: membranoproliferative nephritis, tubular dilation and casts, interstitial inflammation, fibrosis, blood vessel necrosis, and inflammation",[2]; 30 mg/kg oral twice daily,statistically significant decrease
same,Serum IFNγ levels,[2]; both doses (15 and 30 mg/kg BID),modest increase
same,proteinuria,[2]; [3],effectively reduced; also recorded: Significant reduction
same,skin lesion formation / skin lesional scores,[2]; [3],effectively reduced; also recorded: Significant reduction
same,IgG1,[2]; [4],significantly lower
same,IgG2a,[2]; [4],significantly lower
same,IgG2b,[2]; [4],significantly lower
same,IgG3,[2]; [4],significantly lower
same,IgM,[2]; [4],significantly lower
same,anti ds-DNA antibody production,[2]; compared to vehicle control,significantly reduced
same,lymphadenopathy,[2]; highest dose tested,significantly reduced; also recorded: Significant reduction
